Calls of active or inactive are those of the source. No cut-off for these calls is given here.
How the values were obtained:
3T3-L1 = assay: Anti-adipogenic activity in mouse 3T3-L1 preadipocytes assessed as decrease in adipocyte numbers at 20 uM measured after 7 days by Oil Red O staining based inverted phase contrast microscopic analysis; assay type: functional, cell-based; details: time 7.0 day
Mesenchymal stem cells [1] = assay: Cytotoxicity against human bone marrow derived Mesenchymal stem cells assessed as reduction in cell viability at 1 to 20 uM incubated for 1 to 10 days by MTT assay; assay type: toxicity, cell-based; details: dose lower 1 µM, time lower 1 day, dose upper 20 µM, time upper 10 day
Mesenchymal stem cells [2] = assay: Anti-adipogenic activity in human bone marrow derived Mesenchymal stem cells assessed as reduction in adipocyte count at 5 to 20 uM after 21 days by Oil Red O staining based inverted phase contrast microscopic analysis; assay type: functional, cell-based; details: dose 5-20 µM, time 21.0 day
Mesenchymal stem cells [3] = assay: Inhibition of lipid droplet accumulation in human bone marrow derived Mesenchymal stem cells at 10 to 20 uM by Oil red o staining based microplate reader analysis; assay type: functional, cell-based; details: dose 10-20 µM
Mesenchymal stem cells [4] = assay: Inhibition of lipid droplet accumulation in human bone marrow derived Mesenchymal stem cells at 5 to 20 uM incubated for 21 days by Oil red o staining based microplate reader analysis; assay type: functional, cell-based; details: dose 5-20 µM, time 21.0 day
Mesenchymal stem cells [5] = assay: Anti-adipogenic activity against human bone marrow derived Mesenchymal stem cells assessed as downregulation of PPARG mRNA expression at 20 uM measured after 7 days by qRT-PCR analysis; assay type: functional, cell-based; details: time 7.0 day
Mesenchymal stem cells [6] = assay: Anti-adipogenic activity against human bone marrow derived Mesenchymal stem cells assessed as downregulation of C/EBPalpha mRNA expression at 20 uM measured after 7 days by qRT-PCR analysis; assay type: functional, cell-based; details: time 7.0 day
Mesenchymal stem cells [7] = assay: Anti-adipogenic activity against human bone marrow derived Mesenchymal stem cells assessed as downregulation of C/EBPbeta mRNA expression at 20 uM measured after 7 days by qRT-PCR analysis; assay type: functional, cell-based; details: time 7.0 day
Mesenchymal stem cells [8] = assay: Anti-adipogenic activity against human bone marrow derived Mesenchymal stem cells assessed as downregulation of SREBP-1c mRNA expression at 20 uM measured after 7 days by qRT-PCR analysis; assay type: functional, cell-based; details: time 7.0 day
Mesenchymal stem cells [9] = assay: Anti-adipogenic activity in human derived bone marrow derived Mesenchymal stem cells assessed as reduction in PPARgamma expression at 20 uM measured after 7 days by Western blot analysis; assay type: functional, cell-based; details: time 7.0 day
Mesenchymal stem cells [10] = assay: Anti-adipogenic activity in human derived bone marrow derived Mesenchymal stem cells assessed as downregulation of C/EBPalpha protein expression at 20 uM measured after 7 days by western blot analysis; assay type: functional, cell-based; details: time 7.0 day
Mesenchymal stem cells [11] = assay: Anti-adipogenic activity in human derived bone marrow mesenchymal cells assessed as downregulation of FABP4 mRNA expression at 10 to 20 uM measured on day 21 by qRT-PCR analysis; assay type: functional, cell-based; details: dose 10-20 µM, time 21.0 day
Mesenchymal stem cells [12] = assay: Anti-adipogenic activity in human derived bone marrow mesenchymal cells assessed as downregulation of LPL mRNA expression at 10 to 20 uM measured on day 21 by qRT-PCR analysis; assay type: functional, cell-based; details: dose 10-20 µM, time 21.0 day
Mesenchymal stem cells [13] = assay: Anti-adipogenic activity in human derived bone marrow mesenchymal cells assessed as downregulation of GLUT4 mRNA expression at 10 to 20 uM measured on day 21 by qRT-PCR analysis; assay type: functional, cell-based; details: dose 10-20 µM, time 21.0 day
Mesenchymal stem cells [14] = assay: Anti-adipogenic activity in human derived bone marrow mesenchymal stem cells assessed as reduction in adiponectin release measured after 21 days by flow cytometry analysis; assay type: functional, cell-based; details: time 21.0 day
Mesenchymal stem cells [15] = assay: Anti-adipogenic activity in human derived bone marrow mesenchymal stem cells assessed as reduction in […] release measured after 21 days by flow cytometry analysis; assay type: functional, cell-based; details: time 21.0 day
Mesenchymal stem cells [16] = assay: Anti-adipogenic activity in human derived bone marrow mesenchymal stem cells assessed as reduction in adipsin release measured after 21 days by flow cytometry analysis; assay type: functional, cell-based; details: time 21.0 day
Mesenchymal stem cells [17] = assay: Anti-adipogenic activity in human derived bone marrow mesenchymal stem cells assessed as glycerol release at 5 uM incubated for 12 hrs by colorimetric analysis relative to control; assay type: functional
Mesenchymal stem cells [18] = assay: Anti-adipogenic activity in human derived bone marrow mesenchymal stem cells assessed as glycerol release at 10 uM incubated for 12 hrs by colorimetric analysis relative to control; assay type: functional
Mesenchymal stem cells [19] = assay: Anti-adipogenic activity in human derived bone marrow mesenchymal stem cells assessed as glycerol release at 20 uM incubated for 12 hrs by colorimetric analysis relative to control; assay type: functional
Mesenchymal stem cells [20] = assay: Antidiabetic activity in human bone marrow mesenchymal stem cells assessed as glucose uptake by measuring 2-DG6P level at 15 to 20 uM by glucose uptake assay; assay type: functional, cell-based; details: dose 15-20 µM
Mesenchymal stem cells [21] = assay: Upregulation of adiponectin level in human bone marrow derived mesenchymal stem cells at 5 to 20 uM measured after 48 hrs by flow cytometric analysis; assay type: functional, cell-based; details: dose 5-20 µM
Mesenchymal stem cells [22] = assay: Upregulation of adipsin level in human bone marrow derived mesenchymal stem cells at 5 to 20 uM measured after 48 hrs by flow cytometric analysis; assay type: functional, cell-based; details: dose 5-20 µM
Mesenchymal stem cells [23] = assay: Downregulation of RBP4 level in human bone marrow derived mesenchymal stem cells at 5 to 20 uM measured after 48 hrs by flow cytometric analysis; assay type: functional, cell-based; details: dose 5-20 µM
Mesenchymal stem cells [24] = assay: Downregulation of IL6 level in human bone marrow derived mesenchymal stem cells at 5 to 20 uM measured after 48 hrs by flow cytometric analysis; assay type: functional, cell-based; details: dose 5-20 µM
Mesenchymal stem cells [25] = assay: Downregulation of IL8 level in human bone marrow derived mesenchymal stem cells at 5 to 20 uM measured after 48 hrs by flow cytometric analysis; assay type: functional, cell-based; details: dose 5-20 µM
Mesenchymal stem cells [26] = assay: Downregulation of MCP-1 level in human bone marrow derived mesenchymal stem cells at 5 to 20 uM measured after 48 hrs by flow cytometric analysis; assay type: functional, cell-based; details: dose 5-20 µM

SMILES: COC(=O)C1=CO[C@@H](OC)[C@@H]2C(Cn3cc(CCCOC(c4ccccc4)(c4ccccc4)c4ccccc4)nn3)=CC[C@H]12
- Activity (3T3-L1): Active
- Activity (Mesenchymal stem cells [1]): Non-Toxic
- Activity (Mesenchymal stem cells [2]): Active
- inhibition (Mesenchymal stem cells [3]): Active
- inhibition (Mesenchymal stem cells [4]): Active
- Activity (Mesenchymal stem cells [5]): Active
- Activity (Mesenchymal stem cells [6]): Active
- Activity (Mesenchymal stem cells [7]): Active
- Activity (Mesenchymal stem cells [8]): Active
- Activity (Mesenchymal stem cells [9]): Active
- Activity (Mesenchymal stem cells [10]): Active
- Activity (Mesenchymal stem cells [11]): Active
- Activity (Mesenchymal stem cells [12]): Active
- Activity (Mesenchymal stem cells [13]): Active
- Activity (Mesenchymal stem cells [14]): Active
- Activity (Mesenchymal stem cells [15]): Active
- Activity (Mesenchymal stem cells [16]): Active
- Activity (Mesenchymal stem cells [17]): 17%
- Activity (Mesenchymal stem cells [18]): 25%
- Activity (Mesenchymal stem cells [19]): 33%
- Activity (Mesenchymal stem cells [20]): Active
- Activity (Mesenchymal stem cells [21]): Active
- Activity (Mesenchymal stem cells [22]): Active
- Activity (Mesenchymal stem cells [23]): Active
- Activity (Mesenchymal stem cells [24]): Active
- Activity (Mesenchymal stem cells [25]): Active
- Activity (Mesenchymal stem cells [26]): Active

SMILES: COC(=O)C1=CO[C@@H](OC)[C@@H]2C(Cn3cc(COCc4cc(OC)ccc4OC)nn3)=CC[C@H]12
- Activity (3T3-L1): Active

SMILES: COC(=O)C1=CO[C@@H](OC)[C@@H]2C(Cn3cc(COCc4ccc(OC)c(OC)c4)nn3)=CC[C@H]12
- Activity (3T3-L1): Active

SMILES: COC(=O)C1=CO[C@@H](OC)[C@@H]2C(Cn3cc(-c4ccccc4)nn3)=CC[C@H]12
- Activity (3T3-L1): Active

SMILES: COC(=O)C1=CO[C@@H](OC)[C@@H]2C(Cn3cc(C(O)(c4ccccc4)c4ccccc4)nn3)=CC[C@H]12
- Activity (3T3-L1): Active

SMILES: COC(=O)C1=CO[C@@H](O)[C@@H]2C(CO)=CC[C@H]12
- Activity (3T3-L1): Active

SMILES: COC(=O)C1=CO[C@@H](OC)[C@@H]2C(Cn3cc(COc4cc(C=O)ccc4OC)nn3)=CC[C@H]12
- Activity (3T3-L1): Active

SMILES: COC(=O)C1=CO[C@@H](OC)[C@@H]2C(Cn3cc(COCCc4ccccc4)nn3)=CC[C@H]12
- Activity (3T3-L1): Active

SMILES: COC(=O)C1=CO[C@@H](OC)[C@@H]2C(Cn3cc(COc4ccc5ccc(=O)oc5c4)nn3)=CC[C@H]12
- Activity (3T3-L1): Active

SMILES: COC(=O)C1=CO[C@@H](OC)[C@@H]2C(Cn3cc(C4(O)CCCCC4)nn3)=CC[C@H]12
- Activity (3T3-L1): Active

SMILES: COC(=O)C1=CO[C@@H](OC)[C@@H]2C(Cn3cc(CCBr)nn3)=CC[C@H]12
- Activity (3T3-L1): Active

SMILES: CCCCCCCCCCCCCCCCCCOCc1cn(CC2=CC[C@@H]3C(C(=O)OC)=CO[C@@H](OC)[C@H]23)nn1
- Activity (3T3-L1): Active

SMILES: COC(=O)C1=CO[C@@H](OC)[C@@H]2C(Cn3cc(COCc4ccccc4)nn3)=CC[C@H]12
- Activity (3T3-L1): Active
